Measurements published in article PMC12892976, “Alkylation-based optimization of antifungal FPPS inhibitors yields a potent, broad-spectrum lipophilic zoledronate derivative” (mBio, 2025).
Values after ≈ are worked out from the molar mass of the structure shown.

How the values were obtained:
Trichophyton tonsurans [1] = test: checkerboard drug interaction (FICI, MICc); assay type: cell-based;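 further: simplified diagonal checkerboard screen combining antifungals with FPPS inhibitors, with FICI calculated under the Loewe additivity model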
Method: (§1) Drug interactions between antifungals and FPPS inhibitors were investigated using a simplified checkerboard diagonal screening method ([45]). […] FICIs were determined according to the Loewe additivity model ([17]).

Candida dubliniensis = test: MIC broth microdilution (CLSI); assay type: cell-based; conditions: Candida dubliniensis M230642
Method: (§2) Antifungal susceptibility was determined by broth microdilution according to the CLSI guidelines described in M27-Ed4 ([16]).

Mucor circinelloides [2] = test: MIC broth microdilution (CLSI); assay type: cell-based; conditions: Mucor circinelloides 80-14-240-5007
Method: as §2

Nannizzia nana [3] = test: MIC broth microdilution (CLSI); assay type: cell-based; conditions: Nannizzia nana R-133
Method: as §2

Epidermophyton floccosum [4] = test: MIC broth microdilution (CLSI); assay type: cell-based; conditions: Epidermophyon floccosum R-113
Method: as §2

Nannizzia gypsea = test: checkerboard drug interaction (FICI, MICc);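 further: simplified diagonal checkerboard screen pairing antifungals with FPPS inhibitors, FICI derived using the Loewe additivity model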
Method: as §1

Trichophyton soudanense = test: MIC broth microdilution (CLSI); conditions: Trichophyton soudanense R-167
Method: as §2

Paraphyton cookei [5] = test: checkerboard drug interaction (FICI, MICc);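 further: simplified diagonal checkerboard screen pairing an antifungal with an FPPS inhibitor, FICI computed under the Loewe additivity model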
Method: as §1

Cryptococcus tetragattii = test: checkerboard drug interaction (FICI, MICc); assay type: cell-based;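 further: simplified diagonal checkerboard screen pairing antifungals with FPPS inhibitors, with FICI calculated under the Loewe additivity model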
Method: as §1

Paraphyton cookei [6] = test: MIC broth microdilution (CLSI); assay type: cell-based; conditions: Paraphyton cookei R-639
Method: as §2

Scedosporium apiospermum [7] = test: checkerboard drug interaction (FICI, MICc); assay type: cell-based;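 further: simplified diagonal checkerboard screen of antifungal plus FPPS inhibitor pairs, with FICI computed under the Loewe additivity model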
Method: as §1

Pichia kudriavzevii = test: checkerboard drug interaction (FICI, MICc); assay type: cell-based;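 further: antifungal plus FPPS inhibitor interactions tested in a simplified diagonal checkerboard screen, with FICI calculated under the Loewe additivity model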
Method: as §1

Candida parapsilosis = test: checkerboard drug interaction (FICI, MICc); assay type: cell-based;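 further: simplified diagonal checkerboard screen pairing antifungals with FPPS inhibitors, with FICI computed under the Loewe additivity model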
Method: as §1

Lomentospora prolificans = test: MIC broth microdilution (CLSI); assay type: cell-based; conditions: Lomentospora prolificans 80-16-101-2445
Method: as §2

Aspergillus terreus = test: checkerboard drug interaction (FICI, MICc); assay type: cell-based;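 further: simplified diagonal checkerboard screen pairing antifungals with FPPS inhibitors, FICI derived by the Loewe additivity model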
Method: as §1

Aspergillus udagawae [8] = test: MIC broth microdilution (CLSI); assay type: cell-based; conditions: Aspergillus udagawae 8G81
Method: as §2

Scedosporium apiospermum [9] = test: MIC broth microdilution (CLSI); assay type: cell-based; conditions: Scedosporium apiospermum 04-16-022-2268
Method: as §2

[10] = test system: Cryptococcus bacillisporus; test: checkerboard drug interaction (FICI, MICc); assay type: cell-based;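 further: interaction of antifungals with FPPS inhibitors assessed by a simplified diagonal checkerboard screen, with FICI computed under the Loewe additivity model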
Method: as §1

Epidermophyton floccosum [11] = test: checkerboard drug interaction (FICI, MICc);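 further: simplified diagonal checkerboard screen pairing antifungals with FPPS inhibitors, FICI calculated under the Loewe additivity model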
Method: as §1

Aspergillus felis = test: MIC broth microdilution (CLSI); assay type: cell-based; conditions: Aspergillus felis IHE87256683D6
Method: as §2

Cryptococcus gattii = test: MIC broth microdilution (CLSI); assay type: cell-based; conditions: Cryptococcus gattii PNG27
Method: as §2

Fusarium solani [12] = test: checkerboard drug interaction (FICI, MICc); assay type: cell-based;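 further: simplified diagonal checkerboard screen pairing antifungals with FPPS inhibitors, FICI derived under the Loewe additivity model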
Method: as §1

Rhizopus oryzae = test: MIC broth microdilution (CLSI); assay type: cell-based; conditions: Rhizopus oryzae 04-14-364-1703
Method: as §2

Candida tropicalis = test: MIC broth microdilution (CLSI); assay type: cell-based; conditions: Candida tropicalis M230640
Method: as §2

Aspergillus niger = test: checkerboard drug interaction (FICI, MICc); assay type: cell-based;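 further: simplified diagonal checkerboard screen pairing antifungals with FPPS inhibitors, FICI calculated under the Loewe additivity model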
Method: as §1

Mucor circinelloides [13] = test: checkerboard drug interaction (FICI, MICc); assay type: cell-based;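 further: simplified diagonal checkerboard screen pairing antifungals with FPPS inhibitors, FICI calculated under the Loewe additivity model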
Method: as §1

[14] = test system: Trichophyton interdigitale; test: checkerboard drug interaction (FICI, MICc);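 further: simplified diagonal checkerboard screen pairing antifungals with FPPS inhibitors, FICI values calculated under the Loewe additivity model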
Method: as §1

Microsporum canis = test: checkerboard drug interaction (FICI, MICc); assay type: cell-based;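 further: simplified diagonal checkerboard screen pairing antifungals with FPPS inhibitors, FICI calculated under the Loewe additivity model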
Method: as §1

Aspergillus udagawae [15] = test: checkerboard drug interaction (FICI, MICc); assay type: cell-based;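 further: simplified diagonal checkerboard screen pairing antifungals with FPPS inhibitors, FICI calculated using the Loewe additivity model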
Method: as §1

Fusarium solani [16] = test: MIC broth microdilution (CLSI); conditions: Fusarium solani 04-16-056-1862
Method: as §2

[17] = test system: Aspergillus frankstonensis; test: MIC broth microdilution (CLSI); assay type: cell-based; conditions: Aspergillus frankstonensis DTO 341-F3
Method: as §2

Fusarium oxysporum = test: MIC broth microdilution (CLSI); assay type: cell-based; conditions: Fusarium oxysporum 07-200-3012
Method: as §2

[18] = test system: Aspergillus frankstonensis; test: checkerboard drug interaction (FICI, MICc);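 further: simplified diagonal checkerboard screen pairing antifungals with FPPS inhibitors, FICI calculated using the Loewe additivity model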
Method: as §1

Trichophyton tonsurans [19] = test: MIC broth microdilution (CLSI); conditions: Trichophyton tonsurans R-168
Method: as §2

Nannizzia nana [20] = test: checkerboard drug interaction (FICI, MICc); assay type: cell-based
Method: as §1

CC(=O)N1CCN(c2ccc(OCC3COC(Cn4ccnc4)(c4ccc(Cl)cc4Cl)O3)cc2)CC1 (stereo not drawn) [KET, ketoconazole]
antifungal MICc (Trichophyton tonsurans [1]; in combination with 10-ZOL): 0.25
antifungal MICc (Trichophyton tonsurans [1]; in combination with ZOL): 0.5
MIC / MEC (Candida dubliniensis): 0.02 µg/mL (≈ 0.0376 µM)
MIC / MEC (Mucor circinelloides [2]): 16 µg/mL (≈ 30.1 µM)
MIC / MEC (Nannizzia nana [3]): 0.5 µg/mL (≈ 0.941 µM)
MIC / MEC (Epidermophyton floccosum [4]): 2 µg/mL (≈ 3.76 µM)
antifungal MICc (Nannizzia gypsea; in combination with 10-ZOL): 2
antifungal MICc (Nannizzia gypsea; in combination with ZOL): 1
MIC / MEC (Trichophyton soudanense): 4 µg/mL (≈ 7.53 µM)
antifungal MICc (Paraphyton cookei [5]; in combination with 10-ZOL): 1
antifungal MICc (Paraphyton cookei [5]; in combination with ZOL): 4
antifungal MICc (Cryptococcus tetragattii; in combination with 10-ZOL): 0.125
antifungal MICc (Cryptococcus tetragattii; in combination with ZOL): 0.25
MIC / MEC (Paraphyton cookei [6]): 8 µg/mL (≈ 15.1 µM)
antifungal MICc (Scedosporium apiospermum [7]; in combination with 10-ZOL): 4
antifungal MICc (Scedosporium apiospermum [7]; in combination with ZOL): 4
antifungal MICc (Pichia kudriavzevii; in combination with 10-ZOL): 0.25
antifungal MICc (Pichia kudriavzevii; in combination with ZOL): 0.06
antifungal MICc (Candida parapsilosis; in combination with 10-ZOL): 0.015
antifungal MICc (Candida parapsilosis; in combination with ZOL): 0.03
MIC / MEC (Lomentospora prolificans): 4 µg/mL (≈ 7.53 µM)
antifungal MICc (Aspergillus terreus; in combination with 10-ZOL): 2
antifungal MICc (Aspergillus terreus; in combination with ZOL): 0.25
MIC / MEC (Aspergillus udagawae [8]): 8 µg/mL (≈ 15.1 µM)
MIC / MEC (Scedosporium apiospermum [9]): 8 µg/mL (≈ 15.1 µM)
antifungal MICc ([10]; in combination with 10-ZOL): 0.125
antifungal MICc ([10]; in combination with ZOL): 0.25
antifungal MICc (Epidermophyton floccosum [11]; in combination with 10-ZOL): 1
antifungal MICc (Epidermophyton floccosum [11]; in combination with ZOL): 0.5
MIC / MEC (Aspergillus felis): 16 µg/mL (≈ 30.1 µM)
MIC / MEC (Cryptococcus gattii): 0.5 µg/mL (≈ 0.941 µM)
antifungal MICc (Fusarium solani [12]; in combination with 10-ZOL): 4
antifungal MICc (Fusarium solani [12]; in combination with ZOL): 4
MIC / MEC (Rhizopus oryzae): >16 µg/mL
MIC / MEC (Candida tropicalis): 8 µg/mL (≈ 15.1 µM)
antifungal MICc (Aspergillus niger; in combination with 10-ZOL): 2
antifungal MICc (Aspergillus niger; in combination with ZOL): 4
antifungal MICc (Mucor circinelloides [13]; in combination with 10-ZOL): 4
antifungal MICc (Mucor circinelloides [13]; in combination with ZOL): 8
antifungal MICc ([14]; in combination with 10-ZOL): 0.5
antifungal MICc ([14]; in combination with ZOL): 2
antifungal MICc (Microsporum canis; in combination with 10-ZOL): 1
antifungal MICc (Microsporum canis; in combination with ZOL): 4
antifungal MICc (Aspergillus udagawae [15]; in combination with 10-ZOL): 0.5
antifungal MICc (Aspergillus udagawae [15]; in combination with ZOL): 2
MIC / MEC (Fusarium solani [16]): 16 µg/mL (≈ 30.1 µM)
MIC / MEC [17]: 8 µg/mL (≈ 15.1 µM)
MIC / MEC (Fusarium oxysporum): 16 µg/mL (≈ 30.1 µM)
antifungal MICc ([18]; in combination with 10-ZOL): 1
antifungal MICc ([18]; in combination with ZOL): 4
MIC / MEC (Trichophyton tonsurans [19]): 4 µg/mL (≈ 7.53 µM)
antifungal MICc (Nannizzia nana [20]; in combination with 10-ZOL): 0.5
antifungal MICc (Nannizzia nana [20]; in combination with ZOL): 0.13

C[C@@H](c1ncncc1F)[C@](O)(Cn1cncn1)c1ccc(F)cc1F [VOR]
antifungal MICc (Trichophyton tonsurans [1]; in combination with 10-ZOL): 0.063
antifungal MICc (Trichophyton tonsurans [1]; in combination with ZOL): 0.0625
MIC / MEC (Candida dubliniensis): 0.06 µg/mL (≈ 0.172 µM)
MIC / MEC (Mucor circinelloides [2]): 8 µg/mL (≈ 22.9 µM)
MIC / MEC (Nannizzia nana [3]): 0.06 µg/mL (≈ 0.172 µM)
MIC / MEC (Epidermophyton floccosum [4]): 0.25 µg/mL (≈ 0.716 µM)
antifungal MICc (Nannizzia gypsea; in combination with 10-ZOL): 0.25
antifungal MICc (Nannizzia gypsea; in combination with ZOL): 0.0625
MIC / MEC (Trichophyton soudanense): 0.13 µg/mL (≈ 0.372 µM)
antifungal MICc (Paraphyton cookei [5]; in combination with ZOL): 0.125
antifungal MICc (Cryptococcus tetragattii; in combination with 10-ZOL): 0.063
antifungal MICc (Cryptococcus tetragattii; in combination with ZOL): 0.125
MIC / MEC (Paraphyton cookei [6]): 0.5 µg/mL (≈ 1.43 µM)
antifungal MICc (Scedosporium apiospermum [7]; in combination with 10-ZOL): 0.5
antifungal MICc (Scedosporium apiospermum [7]; in combination with ZOL): 1
antifungal MICc (Pichia kudriavzevii; in combination with 10-ZOL): 0.5
antifungal MICc (Pichia kudriavzevii; in combination with ZOL): 1
antifungal MICc (Candida parapsilosis; in combination with 10-ZOL): 0.063
antifungal MICc (Candida parapsilosis; in combination with ZOL): 0.125
MIC / MEC (Lomentospora prolificans): 16 µg/mL (≈ 45.8 µM)
antifungal MICc (Aspergillus terreus; in combination with 10-ZOL): 0.25
antifungal MICc (Aspergillus terreus; in combination with ZOL): 0.125
MIC / MEC (Aspergillus udagawae [8]): 1 µg/mL (≈ 2.86 µM)
MIC / MEC (Scedosporium apiospermum [9]): 1 µg/mL (≈ 2.86 µM)
antifungal MICc ([10]; in combination with 10-ZOL): 0.03
antifungal MICc ([10]; in combination with ZOL): 0.125
antifungal MICc (Epidermophyton floccosum [11]; in combination with 10-ZOL): 0.032
antifungal MICc (Epidermophyton floccosum [11]; in combination with ZOL): 0.25
MIC / MEC (Aspergillus felis): 2 µg/mL (≈ 5.73 µM)
MIC / MEC (Cryptococcus gattii): 0.06 µg/mL (≈ 0.172 µM)
antifungal MICc (Fusarium solani [12]; in combination with 10-ZOL): 0.5
antifungal MICc (Fusarium solani [12]; in combination with ZOL): 1
MIC / MEC (Rhizopus oryzae): 16 µg/mL (≈ 45.8 µM)
MIC / MEC (Candida tropicalis): 0.13 µg/mL (≈ 0.372 µM)
antifungal MICc (Aspergillus niger; in combination with 10-ZOL): 0.13
antifungal MICc (Aspergillus niger; in combination with ZOL): 1
antifungal MICc (Mucor circinelloides [13]; in combination with 10-ZOL): 4
antifungal MICc (Mucor circinelloides [13]; in combination with ZOL): 4
antifungal MICc ([14]; in combination with 10-ZOL): 0.063
antifungal MICc ([14]; in combination with ZOL): 0.0625
antifungal MICc (Microsporum canis; in combination with 10-ZOL): 0.031
antifungal MICc (Microsporum canis; in combination with ZOL): 0.015
antifungal MICc (Aspergillus udagawae [15]; in combination with 10-ZOL): 0.03
antifungal MICc (Aspergillus udagawae [15]; in combination with ZOL): 0.5
MIC / MEC (Fusarium solani [16]): 1 µg/mL (≈ 2.86 µM)
MIC / MEC [17]: 2 µg/mL (≈ 5.73 µM)
MIC / MEC (Fusarium oxysporum): 4 µg/mL (≈ 11.5 µM)
antifungal MICc ([18]; in combination with 10-ZOL): 4
antifungal MICc ([18]; in combination with ZOL): 2
MIC / MEC (Trichophyton tonsurans [19]): 0.13 µg/mL (≈ 0.372 µM)
antifungal MICc (Nannizzia nana [20]; in combination with 10-ZOL): 0.0625
antifungal MICc (Nannizzia nana [20]; in combination with ZOL): 0.0625
